According to patent publication US10975116B2, “Methods of treating and preventing gastrointestinal motility disorders using aminosterols” (Enterin, Inc., priority 2013, dated 2021):
“And” between values parts separate entries of the source, which are not always exact repeats. Equal values may be shown once. “Also recorded” adds a separate entry of the source.

Key:
[1] = extensive studies in animals; cited from earlier work
[2] = system: HIV; conditions: tissue culture; cited from earlier work
[3] = system: appetite and body weight; conditions: cited from earlier work
[4] = system: gastrointestinal tract; assay: Aminosterol Induced GI Response after oral capsule in a human; format: in vivo
Method: Gelatin capsules were prepared for oral administration. Capsules were coated in shellac to prevent their release within the stomach. Furthermore, because squalamine and related aminosterols have antibiotic activity, enteric coating prevents the drug from altering the microbial populations of the stomach. […] Squalamine dilactate powder, 99% pure, or 1436 hydrochloride, 99% pure, was added manually into either Size 0 (for the 200 mg dose) or Size 1 (for the 100 mg dose) gelatin capsules. No excipient was added. The capsules were coated twice in 5% shellac (80% acetone/20% ethanol) and dried before use.
200 mg of squalamine (lactate salt, excipient free) in a coated gelatin capsule was administered orally to a human in the morning on an empty stomach, with water. Squalamine was synthesized as described in Zasloff et al 2011. Within 2 hours nausea was experienced, lasting about 30 minutes. At 2.5 hours, increased peristalsis (“rumbling gut”) was experienced, lasting several minutes. At about 3 hours, a clear watery discharge of about 200 ml was passed rectally. A second episode occurred at 3.2 hours. Following this episode, bowel sounds quieted. No nausea or discomfort was subsequently experienced. Appetite was near normal. Despite normal feeding, feces were not passed for 2.5 days over which time no discomfort was experienced. The first feces passed after this quiescent period was soft and relatively small considering the intake of food and the time interval. Usual bowel functions resumed by about 4 days after squalamine administration.
200 mg of 1436 (HCl salt, excipients free) in a gelatin capsule was administered orally to a human in the morning on an empty stomach, with water. […] At 2 hours, about 100 ml of clear watery diarrhea, recurring at 2.75 hours, 3 hours, 3.25 hours, and 4 hours, with progressively lesser volumes of liquid discharged. First bowel movement was passed at 3.5 days, of normal consistency. The subject experienced no abdominal discomfort, bloating, etc over this period. Usual bowel functions resumed by about 4.5 days after administration of Aminosterol 1436. […]
100 mg of squalamine was orally administered in a capsule as in the first example. […] A period of “bowel quiet” was induced, however, that lasted 2 days, after which normally formed feces were passed.

[5] = single 200 mg oral capsule, morning, empty stomach, one human

SMILES: CC(C)[C@@H](CC[C@@H](C)[C@H]1CC[C@H]2[C@@H]3[C@H](O)C[C@H]4C[C@@H](NCCCNCCCCNCCCN)CC[C@]4(C)[C@H]3CC[C@]12C)OS(=O)(=O)O [Aminosterol 1436]
- absorption from the gastrointestinal tract [1]: neither squalamine nor Aminosterol 1436 can be absorbed to any extent
- antiviral activity [2]: exhibits antiviral activity against HIV
- anorectic activity when administered orally ([3]; oral, dogs and rodents): no anorectic activity
- appetite and weight on parenteral administration ([3]; parenteral): potent appetite suppression and promotion of dose-dependent weight loss; also recorded: capable of inducing weight loss
- duration of the Aminosterol-Induced GI Response ([4]; following a single 200 mg oral dose): about 4 days
- first clear watery rectal discharge / diarrhea, time after dosing [4, 5]: 2 h
- further episodes of watery discharge, time after dosing [4, 5]: 2.75 h and 3 h and 3.25 h and 4 h
- increased peristalsis, time after dosing [4, 5]: ≤ 1 h
- usual bowel functions resumed, time after administration [4, 5]: about 4.5 days
- volume of first clear watery discharge [4, 5]: about 100 ml
- time without feces / to first bowel movement after dosing ([4]; single 200 mg oral capsule, morning, empty stomach, normal behavior about 1 passage every 24 hours): 3.5 days
- estimated reduction of small intestinal motility ([4]; single 200 mg oral dose, versus normal about 1 passage every 24 hours): 3.5 fold
